Measurements: patent US20090311217A1, “3-SUBSTITUTED-1H-INDOLE COMPOUNDS, THEIR USE AS MTOR KINASE AND PI3 KINASE INHIBITORS, AND THEIR SYNTHESES” (priority 2008, published 2009)

Key:
Assay type in all cases: biochemical
PI3K-alpha = PI3K-alpha (Homo sapiens, UniProt P42336); assay: PI3K-alpha fluorescence polarization assay; details: read-out: PI3Kα Avg. IC50
PI3K-gamma = PI3K-gamma (Homo sapiens, UniProt P48736); assay: PI3K-gamma fluorescence polarization assay; details: PI3Kγ Avg. IC50
In short: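 FP displacement read-out: 100 nM GST-GRP1 PH domain plus 5 nM BODIPY-TMR-IP4 added after EDTA stop. Preceding kinase step: 5 ng enzyme, diC8-PI(4,5)P2 2.5 μM, ATP 25 μM, MgCl2 2.5 mM, HEPES 5 mM pH 7, one hour, 25° C.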

human TOR = target: T1, human TOR (Homo sapiens, UniProt P42345); assay: mTOR enzyme assay (DELFIA, His6-S6K substrate); details: read-out: mTOR Kinase Avg. IC50
T1 construct: FLAG

PI3K-gamma, sequence (P48736 whole entry, species assumed, the tested form may be a part): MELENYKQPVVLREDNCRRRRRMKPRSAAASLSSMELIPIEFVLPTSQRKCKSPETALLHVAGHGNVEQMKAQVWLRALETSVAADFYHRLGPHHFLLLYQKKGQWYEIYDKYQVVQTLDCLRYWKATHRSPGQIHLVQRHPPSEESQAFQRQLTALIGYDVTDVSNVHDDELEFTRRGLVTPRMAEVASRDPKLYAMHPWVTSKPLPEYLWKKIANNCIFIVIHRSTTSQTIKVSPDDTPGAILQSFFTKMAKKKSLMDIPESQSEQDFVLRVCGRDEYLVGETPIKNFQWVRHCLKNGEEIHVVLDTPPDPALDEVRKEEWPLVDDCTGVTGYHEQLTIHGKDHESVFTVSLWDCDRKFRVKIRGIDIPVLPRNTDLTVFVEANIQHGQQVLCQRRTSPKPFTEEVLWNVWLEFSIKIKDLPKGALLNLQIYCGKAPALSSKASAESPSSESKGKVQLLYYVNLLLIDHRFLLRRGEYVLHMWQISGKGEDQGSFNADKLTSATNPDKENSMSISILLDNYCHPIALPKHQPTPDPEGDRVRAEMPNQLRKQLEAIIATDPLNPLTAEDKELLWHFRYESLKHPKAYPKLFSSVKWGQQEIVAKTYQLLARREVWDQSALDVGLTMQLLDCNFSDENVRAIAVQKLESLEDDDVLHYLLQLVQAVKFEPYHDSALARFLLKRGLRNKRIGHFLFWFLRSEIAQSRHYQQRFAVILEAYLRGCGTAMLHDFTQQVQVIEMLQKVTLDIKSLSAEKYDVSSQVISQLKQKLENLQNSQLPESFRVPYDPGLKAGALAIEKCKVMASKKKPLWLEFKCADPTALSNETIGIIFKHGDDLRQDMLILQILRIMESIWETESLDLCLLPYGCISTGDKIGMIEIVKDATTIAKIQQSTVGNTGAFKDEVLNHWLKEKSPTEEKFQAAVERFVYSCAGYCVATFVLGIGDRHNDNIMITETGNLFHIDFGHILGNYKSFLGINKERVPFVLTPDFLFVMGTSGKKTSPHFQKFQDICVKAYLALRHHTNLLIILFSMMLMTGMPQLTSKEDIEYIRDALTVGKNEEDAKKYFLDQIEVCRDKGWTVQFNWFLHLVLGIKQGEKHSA
PI3K-alpha, sequence (P42336 whole entry, species assumed): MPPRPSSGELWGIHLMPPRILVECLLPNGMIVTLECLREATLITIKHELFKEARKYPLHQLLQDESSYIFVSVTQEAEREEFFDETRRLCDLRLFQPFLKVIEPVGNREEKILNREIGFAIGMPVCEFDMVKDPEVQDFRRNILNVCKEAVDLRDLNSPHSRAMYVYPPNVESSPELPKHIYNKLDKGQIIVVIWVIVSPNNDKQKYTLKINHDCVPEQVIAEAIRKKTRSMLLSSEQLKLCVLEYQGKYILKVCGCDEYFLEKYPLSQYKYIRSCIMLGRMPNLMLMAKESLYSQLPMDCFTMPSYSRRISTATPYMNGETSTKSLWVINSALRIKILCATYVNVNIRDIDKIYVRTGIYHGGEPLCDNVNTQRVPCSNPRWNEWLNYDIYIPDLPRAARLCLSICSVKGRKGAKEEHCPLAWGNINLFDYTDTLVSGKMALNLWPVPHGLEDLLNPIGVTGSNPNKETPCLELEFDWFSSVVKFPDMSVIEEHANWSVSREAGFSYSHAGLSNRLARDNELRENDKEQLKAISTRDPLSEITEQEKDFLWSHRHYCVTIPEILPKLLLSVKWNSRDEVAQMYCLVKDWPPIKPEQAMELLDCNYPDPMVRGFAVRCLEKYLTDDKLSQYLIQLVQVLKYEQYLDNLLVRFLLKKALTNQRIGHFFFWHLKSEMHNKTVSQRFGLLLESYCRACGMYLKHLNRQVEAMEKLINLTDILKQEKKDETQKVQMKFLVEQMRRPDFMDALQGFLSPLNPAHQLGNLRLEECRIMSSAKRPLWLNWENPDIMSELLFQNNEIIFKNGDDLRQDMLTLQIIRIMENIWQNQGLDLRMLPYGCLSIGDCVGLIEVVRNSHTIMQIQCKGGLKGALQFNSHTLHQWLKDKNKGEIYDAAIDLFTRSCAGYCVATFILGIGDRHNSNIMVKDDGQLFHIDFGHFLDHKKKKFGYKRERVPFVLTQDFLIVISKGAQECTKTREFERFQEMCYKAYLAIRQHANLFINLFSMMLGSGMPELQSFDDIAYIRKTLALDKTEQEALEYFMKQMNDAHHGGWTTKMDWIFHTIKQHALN
PI3K-alpha, sequence (P27986 whole entry partner, species assumed): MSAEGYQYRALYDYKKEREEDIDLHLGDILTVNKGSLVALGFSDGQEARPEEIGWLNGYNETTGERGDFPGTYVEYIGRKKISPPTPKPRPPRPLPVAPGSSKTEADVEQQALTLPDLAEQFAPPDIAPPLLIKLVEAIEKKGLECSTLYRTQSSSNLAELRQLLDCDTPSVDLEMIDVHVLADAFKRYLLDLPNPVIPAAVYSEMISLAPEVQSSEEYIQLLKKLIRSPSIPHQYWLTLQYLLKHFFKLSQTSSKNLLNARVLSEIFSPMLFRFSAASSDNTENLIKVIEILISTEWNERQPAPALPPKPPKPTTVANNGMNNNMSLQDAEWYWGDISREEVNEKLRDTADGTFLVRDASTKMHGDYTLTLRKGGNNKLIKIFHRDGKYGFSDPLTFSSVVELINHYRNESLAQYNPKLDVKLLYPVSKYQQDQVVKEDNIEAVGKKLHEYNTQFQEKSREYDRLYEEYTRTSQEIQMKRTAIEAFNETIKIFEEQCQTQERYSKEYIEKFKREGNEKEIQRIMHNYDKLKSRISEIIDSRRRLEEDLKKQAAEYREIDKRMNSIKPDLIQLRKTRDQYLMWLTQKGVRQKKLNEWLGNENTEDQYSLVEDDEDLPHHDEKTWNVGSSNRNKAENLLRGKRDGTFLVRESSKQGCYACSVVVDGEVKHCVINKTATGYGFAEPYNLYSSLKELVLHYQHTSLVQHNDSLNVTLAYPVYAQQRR

SMILES	IC50 (PI3K-alpha) [nM]	IC50 (PI3K-gamma) [nM]	IC50 (human TOR) [nM]
CCn1c(C)c(/C=C2\Oc3ccc(NC(=O)Nc4ccc(S(=O)(=O)N(C)CCN(C)C)cc4)cc3C2=O)c2cc(OC)ccc21 [Compound 679, N-[2-(dimethylamino)ethyl]-4-[({(2Z)-2-[(1-ethyl-5-methoxy-2-methyl-1H-indol-3-yl)methylidene]-3-oxo-2,3-dihydro-1-benzofuran-5-yl}carbamoyl)amino]-N-methylbenzenesulfonamide]	8	67.5	370
COc1ccc2c(c1)c(/C=C1\Oc3cc(CO)ccc3C1=O)cn2CCCN(C)C [Example 424, (2Z)-2-({1-[3-(dimethylamino)propyl]-5-methoxy-1H-indol-3-yl}methylene)-6-(hydroxymethyl)-1-benzofuran-3(2H)-one]	4020	> 10000	> 20000
Cn1cc(/C=C2\Oc3cc(O)cc(O)c3C2=O)c2c(-c3ccc(C(N)=O)cc3)cccc21 [Example 377, 4-{3-[(Z)-(4,6-Dihydroxy-3-oxo-1-benzofuran-2(3H)-ylidene)methyl]-1-methyl-1H-indol-4-yl}benzamide]	496	4070	7
Cn1c(-c2cccc(F)c2)c(C=C2Oc3cc(O)cc(O)c3C2=O)c2ccccc21 [Example 197, 2-{[2-(3-fluorophenyl)-1-methyl-1H-indol-3-yl]methylene}-4,6-dihydroxy-1-benzofuran-3(2H)-one]	1100	9160	280
O=C1C(=Cc2c(-c3ccccc3)n(Cc3ccccc3)c3ccccc23)Oc2cc(O)cc(O)c21 [Example 149, 2-[(1-benzyl-2-phenyl-1H-indol-3-yl)methylene]-4,6-dihydroxy-1-benzofuran-3(2H)-one]	1590	2010	6150

Results, then the compound that gave them:

IC50 (PI3K-alpha) [nM]	IC50 (PI3K-gamma) [nM]	IC50 (human TOR) [nM]	SMILES
0.3	3	1	COc1ccc2[nH]c(-c3c(C)nn(C)c3C)c(/C=C3\Oc4ccc(NC(=O)Nc5ccc(C(=O)N(C)CCN6CCCC6)cc5)cc4C3=O)c2c1 [Compound 701, 4-({[(2Z)-2-{[5-methoxy-2-(1,3,5-trimethyl-1H-pyrazol-4-yl)-1H-indol-3-yl]methylidene}-3-oxo-2,3-dihydro-1-benzofuran-5-yl]carbamoyl}amino)-N-methyl-N-(2-pyrrolidin-1-ylethyl)benzamide]
0.95	52	35	CNC(=O)Nc1ccc2c(c1)C(=O)/C(=C/c1c(-c3c(C)nn(C)c3C)n(CCN3CCNCC3)c3ccc(OC)cc13)O2 [Compound 656, 1-[(2Z)-2-{[5-methoxy-1-(2-piperazin-1-ylethyl)-2-(1,3,5-trimethyl-1H-pyrazol-4-yl)-1H-indol-3-yl]methylene}-3-oxo-2,3-dihydro-1-benzofuran-5-yl]-3-methylurea]
8	144	88.5	COc1ccc2c(c1)c(/C=C1\Oc3cc(O)cc(O)c3C1=O)c(C(=O)N(C)C)n2CCN1CCC(O)CC1 [Example 311, 3-[(Z)-(4,6-Dihydroxy-3-oxo-1-benzofuran-2(3H)-ylidene)methyl]-1-[2-(4-hydroxypiperidin-1-yl)ethyl]-5-methoxy-N,N-dimethyl-1H-indole-2-carboxamide]
67.5	3130	500	COc1ccc2c(c1)c(/C=C1\Oc3cc(O)cc(Br)c3C1=O)c(C)n2CCN1CCN(C)CC1 [Example 429, (2Z)-4-Bromo-6-hydroxy-2-({5-methoxy-2-methyl-1-[2-(4-methylpiperazin-1-yl)ethyl]-1H-indol-3-yl}methylene)-1-benzofuran-3(2H)-one]
1.45	6.25	48	COc1cc(F)c2[nH]c(-c3c(C)nn(C)c3C)c(/C=C3\Oc4ccc(NC(=O)NCCN5CCCC5)cc4C3=O)c2c1 [Compound 727, 1-[(2Z)-2-{[7-fluoro-5-methoxy-2-(1,3,5-trimethyl-1H-pyrazol-4-yl)-1H-indol-3-yl]methylidene}-3-oxo-2,3-dihydro-1-benzofuran-5-yl]-3-(2-pyrrolidin-1-ylethyl)urea]
